ChEMBL document CHEMBL1255373, “In vitro antibacterial activity of CE-156811, a novel analog derived from hygromycin A” (2008)
Converted amounts (≈) assume the structure as drawn.

How the values were obtained:
Type in all cases: functional
Burkholderia cepacia = assay: Antibacterial activity against Burkholderia cepacia clinical isolate by broth microdilution method
Listeria monocytogenes = assay: Antibacterial activity against Listeria monocytogenes clinical isolate by broth microdilution method
Acinetobacter sp. = assay: Antibacterial activity against Acinetobacter sp. by broth microdilution method
Morganella morganii = assay: Antibacterial activity against Morganella morganii clinical isolate by broth microdilution method
Klebsiella pneumoniae [1] = assay: Antibacterial activity against Klebsiella pneumoniae clinical isolate by broth microdilution method
Staphylococcus = assay: Antibacterial activity against coagulase-negative Staphylococcus clinical isolate by broth microdilution method
Klebsiella oxytoca = assay: Antibacterial activity against Klebsiella oxytoca clinical isolate by broth microdilution method
Providencia rettgeri = assay: Antibacterial activity against Providencia rettgeri clinical isolate by broth microdilution method
Serratia marcescens = assay: Antibacterial activity against Serratia marcescens clinical isolate by broth microdilution method
Citrobacter freundii = assay: Antibacterial activity against Citrobacter freundii clinical isolate by broth microdilution method
Klebsiella pneumoniae [2] = assay: Antibacterial activity against extended-spectrum beta-lactamase producing Klebsiella pneumoniae clinical isolate by broth microdilution method
Klebsiella aerogenes = assay: Antibacterial activity against Enterobacter aerogenes clinical isolate by broth microdilution method
Moraxella catarrhalis = assay: Antibacterial activity against Moraxella catarrhalis clinical isolate by broth microdilution method
Enterobacter cloacae = assay: Antibacterial activity against Enterobacter cloacae clinical isolate by broth microdilution method
Streptococcus pyogenes = assay: Antibacterial activity against Streptococcus pyogenes clinical isolate by broth microdilution method
Proteus mirabilis = assay: Antibacterial activity against Proteus mirabilis clinical isolate by broth microdilution method
Escherichia coli = assay: Antibacterial activity against Escherichia coli clinical isolate by broth microdilution method
Proteus vulgaris = assay: Antibacterial activity against Proteus vulgaris clinical isolate by broth microdilution method
Legionella pneumophila = assay: Antibacterial activity against Legionella pneumophila clinical isolate by broth microdilution method
Citrobacter koseri = assay: Antibacterial activity against Citrobacter diversus clinical isolate by broth microdilution method
Haemophilus influenzae = assay: Antibacterial activity against Haemophilus influenzae clinical isolate by broth microdilution method
Shigella sp. = assay: Antibacterial activity against Shigella sp. by broth microdilution method
Salmonella sp. = assay: Antibacterial activity against Salmonella sp. by broth microdilution method
[3] = test system: Stenotrophomonas maltophilia; assay: Antibacterial activity against Stenotrophomonas maltophilia clinical isolate by broth microdilution method
Pseudomonas aeruginosa = assay: Antibacterial activity against Pseudomonas aeruginosa clinical isolate by broth microdilution method
Neisseria sp. = assay: Antibacterial activity against Neisseria sp. by broth microdilution method
Corynebacterium sp. = assay: Antibacterial activity against Corynebacterium sp. by broth microdilution method
Enterococcus faecium [4] = assay: Antibacterial activity against linezolid-resistant Enterococcus faecium 03B1078 by broth microdilution method
Enterococcus faecium [5] = assay: Antibacterial activity against linezolid-resistant Enterococcus faecium 03B1076 by broth microdilution method
Enterococcus faecium [6] = assay: Antibacterial activity against linezolid-resistant Enterococcus faecium 03B1075 by broth microdilution method
Enterococcus faecium [7] = assay: Antibacterial activity against vancomycin-susceptible Enterococcus faecium clinical isolate by broth microdilution method
Enterococcus faecium [8] = assay: Antibacterial activity against linezolid-resistant Enterococcus faecium 03B1077 by broth microdilution method
Staphylococcus aureus [9] = assay: Antibacterial activity against linezolid-resistant Staphylococcus aureus 01A1221 by broth microdilution method
Enterococcus faecalis [10] = assay: Antibacterial activity against vancomycin-susceptible Enterococcus faecalis clinical isolate by broth microdilution method
Enterococcus faecium [11] = assay: Antibacterial activity against linezolid-resistant Enterococcus faecium 03B1073 by broth microdilution method
Staphylococcus aureus [12] = assay: Antibacterial activity against glycopeptide-intermediate Staphylococcus aureus clinical isolate by broth microdilution method
Enterococcus faecium [13] = assay: Antibacterial activity against linezolid-resistant Enterococcus faecium 03B1074 by broth microdilution method
Staphylococcus aureus [14] = assay: Antibacterial activity against methicillin-susceptible Staphylococcus aureus clinical isolate by broth microdilution method
Streptococcus pneumoniae [15] = assay: Antibacterial activity against penicillin-susceptible Streptococcus pneumoniae clinical isolate by broth microdilution method
Enterococcus faecalis [16] = assay: Antibacterial activity against linezolid-resistant Enterococcus faecalis 03A1128 by broth microdilution method
[17] = test system: Staphylococcus epidermidis; assay: Antibacterial activity against methicillin-susceptible Staphylococcus epidermidis clinical isolate by broth microdilution method
Staphylococcus aureus [18] = assay: Antibacterial activity against linezolid-resistant Staphylococcus aureus 01A1220 by broth microdilution method
Streptococcus pneumoniae [19] = assay: Antibacterial activity against penicillin-nonsusceptible Streptococcus pneumoniae clinical isolate by broth microdilution method
Enterococcus faecium [20] = assay: Antibacterial activity against vancomycin-resistant Enterococcus faecium clinical isolate by broth microdilution method
Enterococcus faecalis [21] = assay: Antibacterial activity against vancomycin-resistant Enterococcus faecalis clinical isolate by broth microdilution method
Staphylococcus aureus [22] = assay: Antibacterial activity against methicillin-resistant Staphylococcus aureus clinical isolate by broth microdilution method
Enterococcus faecalis [23] = assay: Antibacterial activity against […] Enterococcus faecalis ATCC 29212 by broth microdilution method

C[C@H]1COc2c(N3CCN(C)CC3)c(F)cc3c(=O)c(C(=O)O)cn1c23.C[C@H]1COc2c(N3CCN(C)CC3)c(F)cc3c(=O)c(C(=O)O)cn1c23.O [LEVOFLOXACIN]
MIC50 (Burkholderia cepacia): 2 µg/mL
MIC90 (Burkholderia cepacia): 16 µg/mL
MIC50 (Listeria monocytogenes): 1 µg/mL
MIC90 (Listeria monocytogenes): 1 µg/mL
MIC50 (Acinetobacter sp.): 2 µg/mL
MIC90 (Acinetobacter sp.): 16 µg/mL
MIC50 (Morganella morganii): 0.06 µg/mL
MIC90 (Morganella morganii): 8 µg/mL
MIC50 (Klebsiella pneumoniae [1]): 0.06 µg/mL
MIC90 (Klebsiella pneumoniae [1]): 8 µg/mL
MIC50 (Staphylococcus): 0.25 µg/mL
MIC90 (Staphylococcus): 32 µg/mL
MIC50 (Klebsiella oxytoca): 0.06 µg/mL
MIC90 (Klebsiella oxytoca): 8 µg/mL
MIC50 (Providencia rettgeri): 0.06 µg/mL
MIC90 (Providencia rettgeri): 8 µg/mL
MIC50 (Serratia marcescens): 0.06 µg/mL
MIC90 (Serratia marcescens): 8 µg/mL
MIC50 (Citrobacter freundii): 0.06 µg/mL
MIC90 (Citrobacter freundii): 8 µg/mL
MIC50 (Klebsiella pneumoniae [2]): 0.06 µg/mL
MIC90 (Klebsiella pneumoniae [2]): 8 µg/mL
MIC50 (Klebsiella aerogenes): 0.06 µg/mL
MIC90 (Klebsiella aerogenes): 8 µg/mL
MIC50 (Moraxella catarrhalis): 0.06 µg/mL
MIC90 (Moraxella catarrhalis): 0.06 µg/mL
MIC50 (Enterobacter cloacae): 0.06 µg/mL
MIC90 (Enterobacter cloacae): 8 µg/mL
MIC50 (Streptococcus pyogenes): 0.5 µg/mL
MIC90 (Streptococcus pyogenes): 2 µg/mL
MIC50 (Proteus mirabilis): 0.06 µg/mL
MIC90 (Proteus mirabilis): 8 µg/mL
MIC50 (Escherichia coli): 0.06 µg/mL
MIC90 (Escherichia coli): 8 µg/mL
MIC50 (Proteus vulgaris): 0.06 µg/mL
MIC90 (Proteus vulgaris): 8 µg/mL
MIC50 (Legionella pneumophila): 0.004 µg/mL
MIC90 (Legionella pneumophila): 0.015 µg/mL
MIC50 (Citrobacter koseri): 0.06 µg/mL
MIC90 (Citrobacter koseri): 8 µg/mL
MIC50 (Haemophilus influenzae): 0.015 µg/mL
MIC90 (Haemophilus influenzae): 0.25 µg/mL
MIC50 (Shigella sp.): 0.06 µg/mL
MIC90 (Shigella sp.): 8 µg/mL
MIC50 (Salmonella sp.): 0.06 µg/mL
MIC90 (Salmonella sp.): 8 µg/mL
MIC50 [3]: 2 µg/mL
MIC90 [3]: 16 µg/mL
MIC50 (Pseudomonas aeruginosa): 2 µg/mL
MIC90 (Pseudomonas aeruginosa): 16 µg/mL
MIC50 (Neisseria sp.): 0.008 µg/mL
MIC90 (Neisseria sp.): 0.008 µg/mL
MIC50 (Corynebacterium sp.): 0.5 µg/mL
MIC90 (Corynebacterium sp.): 32 µg/mL

CC(=O)NC[C@H]1CN(c2ccc(N3CCOCC3)c(F)c2)C(=O)O1 [LINEZOLID]
MIC (Listeria monocytogenes): 2 µg/mL (≈ 5.93 µM)
MIC50 (Listeria monocytogenes): 2 µg/mL (≈ 5.93 µM)
MIC90 (Listeria monocytogenes): 2 µg/mL (≈ 5.93 µM)
MIC (Enterococcus faecium [4]): 32 µg/mL (≈ 94.9 µM)
MIC (Enterococcus faecium [5]): 32 µg/mL (≈ 94.9 µM)
MIC (Enterococcus faecium [6]): 32 µg/mL (≈ 94.9 µM)
MIC50 (Staphylococcus): 2 µg/mL (≈ 5.93 µM)
MIC90 (Staphylococcus): 2 µg/mL (≈ 5.93 µM)
MIC (Enterococcus faecium [7]): 2 µg/mL (≈ 5.93 µM)
MIC50 (Enterococcus faecium [7]): 2 µg/mL (≈ 5.93 µM)
MIC90 (Enterococcus faecium [7]): 2 µg/mL (≈ 5.93 µM)
MIC (Enterococcus faecium [8]): 8 µg/mL (≈ 23.7 µM)
MIC (Staphylococcus aureus [9]): > 32 µg/mL
MIC50 (Enterococcus faecalis [10]): 2 µg/mL (≈ 5.93 µM)
MIC90 (Enterococcus faecalis [10]): 2 µg/mL (≈ 5.93 µM)
MIC (Enterococcus faecium [11]): 2 µg/mL (≈ 5.93 µM)
MIC (Staphylococcus aureus [12]): 0.5 µg/mL (≈ 1.48 µM)
MIC (Enterococcus faecium [13]): 32 µg/mL (≈ 94.9 µM)
MIC50 (Staphylococcus aureus [14]): 2 µg/mL (≈ 5.93 µM)
MIC90 (Staphylococcus aureus [14]): 2 µg/mL (≈ 5.93 µM)
MIC50 (Streptococcus pneumoniae [15]): 1 µg/mL (≈ 2.96 µM)
MIC90 (Streptococcus pneumoniae [15]): 1 µg/mL (≈ 2.96 µM)
MIC50 (Streptococcus pyogenes): 2 µg/mL (≈ 5.93 µM)
MIC90 (Streptococcus pyogenes): 2 µg/mL (≈ 5.93 µM)
MIC (Enterococcus faecalis [16]): > 32 µg/mL
MIC50 [17]: 0.5 µg/mL (≈ 1.48 µM)
MIC90 [17]: 1 µg/mL (≈ 2.96 µM)
MIC (Staphylococcus aureus [18]): > 32 µg/mL
MIC50 (Streptococcus pneumoniae [19]): 0.5 µg/mL (≈ 1.48 µM)
MIC90 (Streptococcus pneumoniae [19]): 1 µg/mL (≈ 2.96 µM)
MIC50 (Enterococcus faecium [20]): 2 µg/mL (≈ 5.93 µM)
MIC90 (Enterococcus faecium [20]): 4 µg/mL (≈ 11.9 µM)
MIC50 (Enterococcus faecalis [21]): 2 µg/mL (≈ 5.93 µM)
MIC90 (Enterococcus faecalis [21]): 2 µg/mL (≈ 5.93 µM)
MIC (Staphylococcus aureus [22]): 1 µg/mL (≈ 2.96 µM)
MIC50 (Staphylococcus aureus [22]): 1 µg/mL (≈ 2.96 µM)
MIC90 (Staphylococcus aureus [22]): 1 µg/mL (≈ 2.96 µM)
MIC50 (Corynebacterium sp.): 1 µg/mL (≈ 2.96 µM)
MIC90 (Corynebacterium sp.): 1 µg/mL (≈ 2.96 µM)

CC1(C)S[C@@H]2[C@H](NC(=O)Cc3ccccc3)C(=O)N2[C@H]1C(=O)O [PENICILLIN G]
MIC (Streptococcus pneumoniae [15]): 0.015 µg/mL (≈ 0.0449 µM)
MIC50 (Streptococcus pneumoniae [15]): 0.015 µg/mL (≈ 0.0449 µM)
MIC90 (Streptococcus pneumoniae [15]): 0.015 µg/mL (≈ 0.0449 µM)
MIC50 (Streptococcus pneumoniae [19]): 2 µg/mL (≈ 5.98 µM)
MIC90 (Streptococcus pneumoniae [19]): 4 µg/mL (≈ 12 µM)

CN[C@H](CC(C)C)C(=O)N[C@H]1C(=O)N[C@@H](CC(N)=O)C(=O)N[C@H]2C(=O)N[C@H]3C(=O)N[C@H](C(=O)N[C@H](C(=O)O)c4cc(O)cc(O)c4-c4cc3ccc4O)[C@H](O)c3ccc(c(Cl)c3)Oc3cc2cc(c3O[C@@H]2O[C@H](CO)[C@@H](O)[C@H](O)[C@H]2O[C@H]2C[C@](C)(N)[C@H](O)[C@H](C)O2)Oc2ccc(cc2Cl)[C@H]1O [VANCOMYCIN]
MIC (Enterococcus faecalis [23]): 2 µg/mL (≈ 1.38 µM)
MIC (Listeria monocytogenes): 1 µg/mL (≈ 0.69 µM)
MIC50 (Listeria monocytogenes): 1 µg/mL (≈ 0.69 µM)
MIC90 (Listeria monocytogenes): 1 µg/mL (≈ 0.69 µM)
MIC (Enterococcus faecium [4]): > 32 µg/mL
MIC (Enterococcus faecium [6]): > 32 µg/mL
MIC50 (Staphylococcus): 2 µg/mL (≈ 1.38 µM)
MIC90 (Staphylococcus): 2 µg/mL (≈ 1.38 µM)
MIC50 (Enterococcus faecium [7]): 1 µg/mL (≈ 0.69 µM)
MIC90 (Enterococcus faecium [7]): 1 µg/mL (≈ 0.69 µM)
MIC (Enterococcus faecium [8]): > 32 µg/mL
MIC50 (Enterococcus faecalis [10]): 2 µg/mL (≈ 1.38 µM)
MIC90 (Enterococcus faecalis [10]): 4 µg/mL (≈ 2.76 µM)
MIC (Enterococcus faecium [11]): > 32 µg/mL
MIC (Enterococcus faecium [13]): > 32 µg/mL
MIC50 (Staphylococcus aureus [14]): 0.5 µg/mL (≈ 0.345 µM)
MIC90 (Staphylococcus aureus [14]): 1 µg/mL (≈ 0.69 µM)
MIC (Streptococcus pneumoniae [15]): 0.25 µg/mL (≈ 0.173 µM)
MIC50 (Streptococcus pneumoniae [15]): 0.25 µg/mL (≈ 0.173 µM)
MIC90 (Streptococcus pneumoniae [15]): 0.25 µg/mL (≈ 0.173 µM)
MIC (Enterococcus faecalis [16]): 1 µg/mL (≈ 0.69 µM)
MIC50 [17]: 1 µg/mL (≈ 0.69 µM)
MIC90 [17]: 2 µg/mL (≈ 1.38 µM)
MIC50 (Streptococcus pneumoniae [19]): 0.25 µg/mL (≈ 0.173 µM)
MIC90 (Streptococcus pneumoniae [19]): 0.25 µg/mL (≈ 0.173 µM)
MIC50 (Enterococcus faecium [20]): > 32 µg/mL
MIC90 (Enterococcus faecium [20]): > 32 µg/mL
MIC50 (Enterococcus faecalis [21]): > 32 µg/mL
MIC90 (Enterococcus faecalis [21]): > 32 µg/mL
MIC50 (Staphylococcus aureus [22]): 1 µg/mL (≈ 0.69 µM)
MIC90 (Staphylococcus aureus [22]): 2 µg/mL (≈ 1.38 µM)
MIC50 (Corynebacterium sp.): 0.5 µg/mL (≈ 0.345 µM)
MIC90 (Corynebacterium sp.): 1 µg/mL (≈ 0.69 µM)
